Assays:
[1] = tested on: secreted IL-17 in peripheral blood mononuclear cells (PBMCs); assay: Human IL-17 inhibition assay; format: cell-based; settings: PBMC, anti-CD3/anti-CD28, 72 h, read-out: IL17 IC50
Description: Peripheral blood mononuclear cells (PBMCs) were isolated from healthy volunteers and subjected to T cell polarization assay. Two million PBMCs were placed on anti-CD3 (Biolegend, US) coated 96-well plates and 1 μg/mL of anti-CD28 (Biolegend, US) was added along with RORγt inhibitors or the vehicle control and incubated at 37° C. and 5% CO2 for 72 h. At the end of incubation time, the supernatant was collected and analyzed for secreted IL-17 using sandwich enzyme immunoassay (Mabtech AB, Sweden). The results were analyzed using Graphpad Prism and the half-maximal inhibitory concentrations (IC50) of the test compounds were derived (Table 4).

full length human RORγt = molecular target: T1, full length human RORγt (Homo sapiens, UniProt P51449); assay: 5×RORE based luciferase assay; format: cell-based; settings: COS-7 cells transfected with 5×RORE-Luc and hRORγt, 18-20 h treatment
T1 construct: full length human RORγt together in COS-7 cells; expressed in transfected cells; host or cells: COS-7
T1 sequence (P51449 1-497 isoform P51449-2): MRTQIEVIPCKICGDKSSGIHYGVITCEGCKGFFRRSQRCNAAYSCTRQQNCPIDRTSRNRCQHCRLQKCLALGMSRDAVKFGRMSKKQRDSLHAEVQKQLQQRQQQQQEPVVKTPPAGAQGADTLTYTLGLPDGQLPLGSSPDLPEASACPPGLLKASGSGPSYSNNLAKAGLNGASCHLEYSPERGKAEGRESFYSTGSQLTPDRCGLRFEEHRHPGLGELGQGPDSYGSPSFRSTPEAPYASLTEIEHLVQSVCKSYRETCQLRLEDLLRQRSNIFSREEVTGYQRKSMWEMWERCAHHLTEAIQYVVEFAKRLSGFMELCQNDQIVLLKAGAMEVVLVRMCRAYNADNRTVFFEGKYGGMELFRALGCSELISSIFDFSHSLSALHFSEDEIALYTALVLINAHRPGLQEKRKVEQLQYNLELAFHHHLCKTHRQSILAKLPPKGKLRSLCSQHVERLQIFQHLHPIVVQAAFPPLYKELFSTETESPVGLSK
Description: Human RORγt (hRORγt) inhibitors were screened in RORE (RORγt Response Element) based Luciferase assay by transient transfection of 5×RORE (5 tandem repeats of RORγt Response Element) and full length human RORγt together in COS-7 cells. COS-7 cells were maintained as monolayer in complete DMEM (High Glucose) medium in presence of 2 mM Glutamin and 1× Sodium Pyruvate. Day before transfection, 15000 cells were seeded in 96 well cell culture plate in 100 μl antibiotic free medium and incubated at 37° C. in 5% CO2 containing humidified chamber O/N. Prior to transfection, cells were fed with fresh complete growth medium and incubated until the addition of transfection complex. Transfection complex for the required numbers of wells were prepared from pGL2-promoter-5×RORE-Luc plasmid, pcDNA3.1 (+)-hRORγt expression plasmid, pβ-GAL plasmid (transfection control), and Lipofectamine 3000 (Invitrogen). 50 μl of transfection complex were added in 100 μl of complete medium to respective wells, mixed gently and plate was incubated for 5-6 h at 37° C. in 5% CO2 containing humidified chamber. After 5 h of transfection, content of the wells were aspirated and cells were treated with increasing concentration of RORγt inverse agonist in medium devoid of serum with a final DMSO concentration of 0.2% for 18-20 h at 37° C. in 5% CO2 containing humidified chamber. Next day, cells were lysed and the lysates were assayed for luciferase and β-GAL activity using Promega's luciferase assay system and an in-house made β-GAL assay buffer respectively. Luciferase signals were normalized with β-GAL and % activity was determined with respect to that of 10 nM control ligand.
IC50 of selected compounds were then determined by nonlinear regression analysis of % activity, plotted against compound concentration (Table 4).

SMILES	IC50 [1] [nM]	IC50 (full length human RORγt) [nM]
CCS(=O)(=O)c1ccc(CC(=O)Nc2cc(Cl)c(C3(c4noc(-c5ccc(C#N)cc5)n4)CC3)c(Cl)c2)nc1 [Example 53, N-(3,5-dichloro-4-(1-(5-(4-cyanophenyl)-1,2,4-oxadiazol-3-yl)cyclopropyl)phenyl)-2-(5-(ethylsulfonyl)pyridin-2-yl)acetamide]	48	1.9
CCS(=O)(=O)c1ccc(CC(=O)Nc2cc(Cl)c(C3(c4nc5ccc(F)cc5o4)CC3)c(Cl)c2)nc1 [Example 58, N-(3,5-dichloro-4-(1-(6-fluorobenzo[d]oxazol-2-yl)cyclopropyl)phenyl)-2-(5-(ethylsulfonyl)pyridin-2-yl)acetamide]	23.3	3.4
CCS(=N)(=O)c1ccc(CC(=O)Nc2cc(Cl)c(C3(c4noc(-c5ccc(F)cc5)n4)CC3)c(Cl)c2)cc1 (stereo not drawn) [Example 61, N-(3,5-dichloro-4-(1-(5-(4-fluorophenyl)-1,2,4-oxadiazol-3-yl)cyclopropyl)phenyl)-2-(4-(ethylsulfonimidoyl)phenyl)acetamide]	35	9.2
O=C(Cc1ccc(S(=O)(=O)NC2CC2)cc1)Nc1cc(Cl)c(C2(c3noc(-c4ccc(F)cc4)n3)CC2)c(Cl)c1 [Example 63, 2-(4-(N-cyclopropylsulfamoyl)phenyl)-N-(3,5-dichloro-4-(1-(5-(4-fluorophenyl)-1,2,4-oxadiazol-3-yl)cyclopropyl)phenyl)acetamide]	18	11
O=C(Cc1ccc(S(=O)(=O)NC2CC2)cc1)Nc1cc(Cl)c(C2(c3noc(-c4ccc(C(F)(F)F)cc4)n3)CC2)c(Cl)c1 [Example 64, 2-(4-(N-cyclopropylsulfamoyl)phenyl)-N-(3,5-dichloro-4-(1-(5-(4-(trifluoromethyl)phenyl)-1,2,4-oxadiazol-3-yl)cyclopropyl)phenyl)acetamide]	63	15.9
O=C(Cc1ccc(S(=O)(=O)NC2CC2)cc1)Nc1cc(Cl)c(C2(c3nc4ccc(F)cc4o3)CC2)c(Cl)c1 [Example 65, 2-(4-(N-cyclopropylsulfamoyl)phenyl)-N-(3,5-dichloro-4-(1-(6-fluorobenzo[d]oxazol-2-yl)cyclopropyl)phenyl)acetamide]	6	2.4
CCS(=O)(=O)c1ccc(CC(=O)Nc2cc(Cl)c(C3(c4noc(-c5ccc(F)c(F)c5)n4)CC3)c(Cl)c2)cn1 [Example 68, N-(3,5-dichloro-4-(1-(5-(3,4-difluorophenyl)-1,2,4-oxadiazol-3-yl)cyclopropyl)phenyl)-2-(6-(ethylsulfonyl)pyridin-3-yl)acetamide]	42.7	9.6
CCS(=O)(=O)c1ccc(CC(=O)Nc2cc(Cl)c(C3(c4noc(-c5ccc(F)cc5F)n4)CC3)c(Cl)c2)cn1 [Example 69, N-(3,5-dichloro-4-(1-(5-(2,4-difluorophenyl)-1,2,4-oxadiazol-3-yl)cyclopropyl)phenyl)-2-(6-(ethylsulfonyl)pyridin-3-yl)acetamide]	22.4	6.4
CCS(=O)(=O)c1ccc(CC(=O)Nc2cc(Cl)c(C3(c4noc(-c5ccc(F)c(Cl)c5)n4)CC3)c(Cl)c2)cn1 [Example 70, N-(3,5-dichloro-4-(1-(5-(3-chloro-4-fluorophenyl)-1,2,4-oxadiazol-3-yl)cyclopropyl)phenyl)-2-(6-(ethylsulfonyl)pyridin-3-yl)acetamide]	22	17
CCS(=O)(=O)c1ccc(CC(=O)Nc2cc(Cl)c(C3(c4noc(-c5ccc(Cl)c(Cl)c5)n4)CC3)c(Cl)c2)cn1 [Example 71, N-(3,5-dichloro-4-(1-(5-(3,4-dichlorophenyl)-1,2,4-oxadiazol-3-yl)cyclopropyl)phenyl)-2-(6-(ethylsulfonyl)pyridin-3-yl)acetamide]	32	15.7
CCS(=O)(=O)c1ccc(CC(=O)Nc2cc(Cl)c(C3(c4noc(-c5ccc(Cl)cc5)n4)CC3)c(Cl)c2)cn1 [Example 72, N-(3,5-dichloro-4-(1-(5-(4-chlorophenyl)-1,2,4-oxadiazol-3-yl)cyclopropyl)phenyl)-2-(6-(ethylsulfonyl)pyridin-3-yl)acetamide]	20.8	20
CCS(=O)(=O)c1ccc(CC(=O)Nc2cc(Cl)c(C3(c4noc(-c5ccc(C#N)cc5)n4)CC3)c(Cl)c2)cn1 [Example 73, N-(3,5-dichloro-4-(1-(5-(4-cyanophenyl)-1,2,4-oxadiazol-3-yl)cyclopropyl)phenyl)-2-(6-(ethylsulfonyl)pyridin-3-yl)acetamide]	23.4	17.6
CCS(=O)(=O)c1ccc(CC(=O)Nc2cc(Cl)c(C3(c4nc5ccc(F)cc5o4)CC3)c(Cl)c2)cn1 [Example 74, N-(3,5-dichloro-4-(1-(6-fluorobenzo[d]oxazol-2-yl)cyclopropyl)phenyl)-2-(6-(ethylsulfonyl)pyridin-3-yl)acetamide]	23.8	23.9
CCS(=O)(=O)c1cnc(CC(=O)Nc2cc(Cl)c(C3(c4nc5ccc(F)cc5o4)CC3)c(Cl)c2)cn1 [Example 78, N-(3,5-dichloro-4-(1-(6-fluorobenzo[d]oxazol-2-yl)cyclopropyl)phenyl)-2-(5-(ethylsulfonyl)pyrazin-2-yl)acetamide]	47.3	7.9
CCS(=O)(=O)c1ccc(CC(=O)Nc2cc(Cl)c(C3(c4nnc(-c5ccc(F)cc5)o4)CC3)c(Cl)c2)cc1 [Example 79, N-(3,5-dichloro-4-(1-(5-(4-fluorophenyl)-1,3,4-oxadiazol-2-yl)cyclopropyl)phenyl)-2-(4-(ethylsulfonyl)phenyl)acetamide]	39	12.3

Source: US20190152962A1, “CYCLOPROPYL DERIVATIVES AS ROR-GAMMA MODULATORS” (CADILA HEALTHCARE LIMITED, priority 2016, published 2019)
